Test results: EP4420661B1, “SMALL MOLECULES TARGETING GLYCOPROTEIN VI AS ANTIPLATELET AGENTS FOR USE IN THE PREVENTION AND/OR TREATMENT OF THROMBOSIS AND ASSOCIATED PATHOLOGIES” (Universidade de Santiago de Compostela, priority 2023, dated 2024)
≈ marks a conversion by molar mass, not a printed value.

Experiments:
human platelets [1] = test: intracellular Ca+2 mobilization assay, CRP-activated washed platelets (FLIPR Calcium 4); format: cell-based; conditions: Platelet, calcium mobilization in human platelets, read-out: % Inhibition of CRP effect at 1µM, Mean
Protocol: An intracellular Ca^+2 mobilization assay was used to test the activity of the ligands in platelets. This assay measures the changes in calcium in real time by fluorophore dye Calcium 4, providing a useful way to characterize platelet activation by GPVI signaling [Barrachina et al. (2021)].
Washed platelets (5x10E6) were incubated with FLIPR Calcium 4 reagent (Molecular Devices LLC, San Jose, CA, USA) in a 384-well transparent bottom plate (Greiner Bio-One International GmbH, Kremsmünster, Austria) and supplemented with Probenecid (Invitrogen™, Carlsbad, CA, USA) 0.07% for 1 h at 37 °C. Platelets were co-incubated for 10 min with the tested compounds and inhibitors of secondary mediators (2 U/mL apyrase and 10 microM indomethacin (Sigma-Aldrich, Saint Louis, MO, USA)) under nonaggregating conditions (9 microM eptifibatide (Cayman Chemicals, Ann Arbor, MI, USA)). Then, the GPVI-specific agonist Collagen-Related Peptide (CRP) was added to the platelet suspension at different doses. Both potential GPVI inhibitors and CRP were automatically dispensed by FDSS7000EX Functional Drug Screening System (Hamamatsu Photonics, Hamamatsu, Japan). Intracellular Ca^2+ mobilization was assessed by measuring fluorescence changes ([…] wavelengths) in real time for 15 min after the addition of the agonist. 100% was expressed as maximal Ca^2+ release in platelets treated with the agonist CRP. To determine IC50, compounds were tested at 9 different concentrations in duplicates starting from 10 uM and performing 1:3 serial dilutions. The analysis of the data was performed with GraphPad Prism® software (version 6.0e, March 2014) (GraphPad Software, San Diego, CA, USA) by carrying out a nonlinear regression fit for log(inhibitor) vs. relative CRP activity using a Hill slope of -1, and top and bottom constraints of 100 and 0, respectively.

human platelets [2] = test: platelet aggregation assay, CRP-induced; format: cell-based; conditions: Homo sapiens, Platelet, CRP 1 µg/mL
Protocol: Platelet aggregation assays were carried out to assess the potency of the active compounds as previously described [Barrachina et al. (2021)].
Briefly, human platelets from at least =7 healthy individuals were isolated and washed. Then, the suspension was incubated with the compounds at 10 µM at 37 ∘C for 4 min in a Chrono-log® 490-X aggregometer (Chrono-log Corporation, Havertown, PA, USA). After that, platelets were stimulated with the agonist CRP at 1 µg/mL for 5 min.

[3] = plasmatic stability, rat plasma; format: in vitro ADME; conditions: for Plasmatic stability: Rat plasma
Protocol: (§1) Rat, human, mouse and dog plasma pooled from healthy donors extracted in citrate tubes was employed in the assay.
(§2) […] Then 300µl Acetonitrile were added for precipitating plasma protein, and the plate was centrifuged at 4000 g for 60 min at 4°C.
(§3) Supernatant was taken and analyzed by UPLC/MS/MS for sample quantification. Stationary phase: Reverse phase ACQUITY BEH C18 1.7µm 2.1x50mm (Waters) Mobile phase: 0.1% Formic acid water/0.1% formic acid in acetonitrile Gradient: Table 4: UPLC gradient / Plasmatic stability assay
(§4) The chromatographic equipment employed was an UPLC QSM Waters Acquity. Compound concentrations were calculated from the MS peak areas.

[4] = plasmatic stability, human plasma; format: in vitro ADME; conditions: for Plasmatic stability: Human plasma
Protocol: as §1, §2, §3, §4

[5] = plasmatic stability, dog plasma; format: in vitro ADME
Protocol: as §1, §2, §3, §4

CYP2C19 = molecular target: T1, CYP2C19 (Homo sapiens, UniProt P33261); test: CYP inhibition, liver microsomes, substrate cocktail; format: in vitro ADME
T1 construct: 0.5 mg protein/mL of liver microsomes (HLM Xenotech); tissue Xenotech; host or cells: liver microsomes
T1 sequence (P33261 whole entry): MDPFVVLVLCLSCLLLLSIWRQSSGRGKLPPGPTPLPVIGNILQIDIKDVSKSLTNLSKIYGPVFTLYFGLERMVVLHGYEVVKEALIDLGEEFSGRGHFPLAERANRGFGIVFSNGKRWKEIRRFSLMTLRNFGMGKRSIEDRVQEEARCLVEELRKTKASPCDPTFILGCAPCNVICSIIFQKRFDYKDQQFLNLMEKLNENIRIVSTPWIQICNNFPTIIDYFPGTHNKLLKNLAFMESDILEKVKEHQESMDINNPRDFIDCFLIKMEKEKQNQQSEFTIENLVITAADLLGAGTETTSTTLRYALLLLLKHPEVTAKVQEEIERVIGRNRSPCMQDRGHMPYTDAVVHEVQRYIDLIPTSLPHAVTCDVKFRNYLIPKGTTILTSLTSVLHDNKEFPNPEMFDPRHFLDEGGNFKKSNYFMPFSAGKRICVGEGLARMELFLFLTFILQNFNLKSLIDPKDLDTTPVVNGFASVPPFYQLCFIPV
Protocol: (§5) Cytochrome P450 (CYP) are a family of enzymes which play a major role in the metabolism of drugs. Assessment of the potential of a compound to inhibit a specific cytochrome P450 enzyme is important as co-administration of compounds may result in one or both inhibiting the other's metabolism.
(§6) All the incubations were performed in 250 µL reaction medium containing sodium/potassium phosphate buffer 50mM, pH 7.4, 3mM MgCl2, an NADPH regeneration system 1mM NADP, 10mM glucose 6-phosphate, and 1 U/mL glucose 6-phosphate dehydrogenase, 0.5 mg protein/mL of liver microsomes (HLM Xenotech), and a substrate cocktail composed of phenacetin for CYP1A2, diclofenac for CYP2C9, S-mephenytoin for CYP2C19, bufuralol for CYP2D6, midazolam for CYP3A4, and testosterone for CYP3A4. Final concentrations of substrate in the reaction medium were: 10 µM phenacetin, 10 µM diclofenac, 5 µM bufuralol, 100µM S-Mephenytoin, 5 µM midazolam, and 50 µM testosterone. Following incubation at 37°C for 25 min, the reactions were terminated by the addition of ice-cold acetonitrile and the plate was centrifuged at 4000 g for 60 min at 4°C.
(§7) Supernatant was taken and analyzed by UPLC/MS/MS for sample quantification The chromatographic equipment employed was an UPLC QSM Waters Acquity. Stationary phase: Reverse phase Acquity UPLC® BEHC18 1,7 µm (2.1 mm x 100 mm) (Waters) Mobile phase: 0.1% Formic acid water/0.1% formic acid in acetonitrile. Flow: 0.8 ml/min. Gradient: Table 10: UPLC gradient / CYP inhibition assay

CYP2C9 = molecular target: T2, CYP2C9 (Homo sapiens, UniProt P11712); test: as above; format: in vitro ADME
T2 construct: 0.5 mg protein/mL of liver microsomes (HLM Xenotech); tissue Xenotech; host or cells: liver microsomes
T2 sequence (P11712 whole entry): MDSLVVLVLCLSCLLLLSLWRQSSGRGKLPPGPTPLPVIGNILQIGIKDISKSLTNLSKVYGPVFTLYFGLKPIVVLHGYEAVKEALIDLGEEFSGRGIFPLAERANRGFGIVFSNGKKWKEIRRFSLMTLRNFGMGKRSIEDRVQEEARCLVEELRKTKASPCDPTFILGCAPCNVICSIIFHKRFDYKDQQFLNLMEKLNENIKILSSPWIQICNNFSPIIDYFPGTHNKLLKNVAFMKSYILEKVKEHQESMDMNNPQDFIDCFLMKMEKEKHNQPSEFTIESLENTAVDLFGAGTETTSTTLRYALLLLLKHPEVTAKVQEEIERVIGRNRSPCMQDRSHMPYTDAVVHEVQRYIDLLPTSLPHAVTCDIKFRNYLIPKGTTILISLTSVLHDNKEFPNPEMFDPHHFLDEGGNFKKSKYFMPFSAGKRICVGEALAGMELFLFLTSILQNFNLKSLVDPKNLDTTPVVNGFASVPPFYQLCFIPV
Protocol: as §5, §6, §7

[6] = solubility by nephelometry; conditions: 1% dmso/pbs, 37 °C, aqueous buffer, kinetic from dmso stock
Protocol: Solubility was determined by nephelometry to assess its potential impact on the bioassays at active concentrations.
Then, said compounds were incubated for 2 hours at 37°C and read in a NEPHELOstar Plus (BMG LABTECH).

O=C(Cc1ccc2c(c1)OCCO2)Nc1nc(-c2ccc3c(c2)CCC(=O)N3)cs1 [Compound (If)] showed an inhibition at 1 µM (human platelets [1]) of 31%, an inhibition at 10 µM (human platelets [2]) of 70 ± 19% and a Plasmatic stability ([3]; 10µM, t 0 min) of 100.0. The Plasmatic stability ([3]; 10µM, t 60 min) was 105.5, the Plasmatic stability ([3]; 10µM, t 120 min) was 105.4 and the Plasmatic stability ([3]; 10µM, t 360 min) was 81.6. For the same compound, the Plasmatic stability ([3]; 100µM, t 0 min) was 100.0, the Plasmatic stability ([3]; 100µM, t 60 min) was 88.8 and the Plasmatic stability ([3]; 100µM, t 120 min) was 95.1. The Plasmatic stability ([3]; 100µM, t 360 min) was 65.7, the “plasmatic stability (in words)” value ([3]; rats) was “high plasmatic stability” and the Plasmatic stability ([4]; 10µM, t 0 min) was 100.0. The Plasmatic stability ([4]; 10µM, t 60 min) was 101.0, the Plasmatic stability ([4]; 10µM, t 120 min) was 101.7 and the Plasmatic stability ([4]; 10µM, t 360 min) was 101.4. For the same compound, the Plasmatic stability ([4]; 100µM, t 0 min) was 100.0, the Plasmatic stability ([4]; 100µM, t 60 min) was 104.3 and the Plasmatic stability ([4]; 100µM, t 120 min) was 107.4. The Plasmatic stability ([4]; 100µM, t 360 min) was 106.4, the “plasmatic stability (in words)” value ([4]; human) was “high plasmatic stability” and the Plasmatic stability ([5]; 10µM, t 0 min) was 100.0. It also gave a Plasmatic stability ([5]; 10µM, t 60 min) of 89.2, a Plasmatic stability ([5]; 10µM, t 120 min) of 85.1 and a Plasmatic stability ([5]; 10µM, t 360 min) of 83.5. It also gave a Plasmatic stability ([5]; 100µM, t 0 min) of 100.0, a Plasmatic stability ([5]; 100µM, t 60 min) of 101.4 and a Plasmatic stability ([5]; 100µM, t 120 min) of 106.5. The Plasmatic stability ([5]; 100µM, t 360 min) was 102.4, the IC50 (CYP2C19; CYP2C19, substrate S-mephenytoin) was over 10 µM and the inhibition at 25 min, 10 µM (CYP2C19; human, liver microsomes, pH 7.4, CYP2C19, 10µM, substrate S-mephenytoin) was -18.8%. It also gave an IC50 (CYP2C9; CYP2C9, substrate diclofenac) of over 10 µM, an inhibition at 25 min, 10 µM (CYP2C9; human, liver microsomes, pH 7.4, CYP2C9, 10µM, substrate diclofenac) of -0.7% and a solubility at 2 h [6] of 61.5 µM (≈ 25.9 µg/mL).
